Details: Liquid

CN1CCCC1=O [N-methylpyrrolidone]
mass density [kg/m3]
Details | 288.15 K | 298.15 K | 308.15 K | 318.15 K
100 kPa | 1036.8 | 1028 | 1019.3 | 1011
500 kPa | 1036.9 | 1028.1 | 1019.5 | 1011.1
1000 kPa | 1037.2 | 1028.4 | 1019.8 | 1011.4
1500 kPa | 1037.4 | 1028.7 | 1020 | 1011.7
2000 kPa | 1037.7 | 1028.9 | 1020.3 | 1012.1
2500 kPa | 1037.9 | 1029.2 | 1020.6 | 1012.4
3000 kPa | 1038.2 | 1029.4 | 1020.9 | 1012.7
3500 kPa | 1038.4 | 1029.7 | 1021.1 | 1012.9
4000 kPa | 1038.7 | 1030 | 1021.4 | 1013.2
4500 kPa | 1038.9 | 1030.2 | 1021.6 | 1013.5
5000 kPa | 1039.2 | 1030.5 | 1021.8 | 1013.8
5500 kPa | 1039.4 | 1030.7 | 1022.2 | 1014
5900 kPa | – | 1031 | – | –
6000 kPa | 1039.6 | – | 1022.4 | 1014.4
6400 kPa | – | – | 1022.6 | –
6500 kPa | 1039.9 | 1031.3 | – | 1014.6
6900 kPa | – | 1031.5 | – | –
7000 kPa | 1040.2 | – | – | 1014.9
7100 kPa | – | – | 1023 | –
7500 kPa | 1040.4 | 1031.8 | 1023.1 | 1015.2
8000 kPa | 1040.7 | 1032 | – | 1015.5
8100 kPa | – | – | 1023.5 | –
8500 kPa | 1041 | 1032.3 | 1023.7 | 1015.8
9000 kPa | 1041.2 | 1032.5 | 1024 | 1016
9500 kPa | 1041.4 | – | 1024.3 | 1016.3
9600 kPa | – | 1032.9 | – | –
10000 kPa | 1041.7 | 1033.1 | 1024.6 | 1016.6
10400 kPa | – | – | 1024.8 | –
10500 kPa | 1042 | 1033.3 | – | 1016.9
11000 kPa | 1042.2 | 1033.6 | – | 1017.3
11100 kPa | – | – | 1025.1 | –
11400 kPa | – | – | – | 1017.6
11500 kPa | 1042.5 | 1033.8 | 1025.3 | –
12000 kPa | – | 1034.1 | 1025.5 | 1017.8
12100 kPa | 1042.7 | – | – | –
12500 kPa | 1042.9 | 1034.3 | 1025.8 | 1018
12900 kPa | – | – | – | 1018.3
13000 kPa | 1043.1 | 1034.6 | 1026 | –
13500 kPa | 1043.4 | 1034.8 | 1026.3 | 1018.5
14000 kPa | 1043.6 | 1035.1 | 1026.5 | 1018.8
14400 kPa | – | 1035.3 | – | –
14500 kPa | 1043.8 | – | 1026.8 | 1019.1
14900 kPa | – | 1035.5 | – | –
15000 kPa | 1044.1 | – | 1027 | 1019.4
15500 kPa | 1044.3 | 1035.8 | 1027.3 | 1019.7
16000 kPa | 1044.5 | 1036 | 1027.5 | 1019.9
16500 kPa | 1044.8 | 1036.3 | 1027.7 | 1020.2
17000 kPa | 1045 | 1036.5 | 1028 | 1020.4
17500 kPa | 1045.2 | 1036.7 | 1028.3 | 1020.7
17900 kPa | – | 1037 | – | –
18000 kPa | 1045.4 | – | 1028.5 | 1021
18500 kPa | – | 1037.2 | 1028.7 | 1021.3
18600 kPa | 1045.7 | – | – | –
19000 kPa | 1046 | 1037.4 | 1029 | 1021.5
19500 kPa | 1046.2 | 1037.7 | 1029.2 | –
19600 kPa | – | – | – | 1021.9
20000 kPa | 1046.4 | 1037.9 | 1029.4 | 1022
